Experimental data reported in patent US20230139171A1 (SITA Information Networking Computing UK Limited, priority 2019, published 2023).

Tests used:
Format in all cases: cell-based
[1] = molecular target: T1, human TLR7 (Homo sapiens, UniProt Q9NYK1); experiment: TLR7 inhibition reporter assay (HEK-Blue cells, SEAP reporter, gardiquimod stimulation); conditions: HEK-Blue cells overexpressing human TLR7, SEAP reporter, gardiquimod 7.5 μM; read-out: TLR7 IC50
T1 construct: host or cells: HEK-Blue cells
T1 sequence (Q9NYK1 27-1049): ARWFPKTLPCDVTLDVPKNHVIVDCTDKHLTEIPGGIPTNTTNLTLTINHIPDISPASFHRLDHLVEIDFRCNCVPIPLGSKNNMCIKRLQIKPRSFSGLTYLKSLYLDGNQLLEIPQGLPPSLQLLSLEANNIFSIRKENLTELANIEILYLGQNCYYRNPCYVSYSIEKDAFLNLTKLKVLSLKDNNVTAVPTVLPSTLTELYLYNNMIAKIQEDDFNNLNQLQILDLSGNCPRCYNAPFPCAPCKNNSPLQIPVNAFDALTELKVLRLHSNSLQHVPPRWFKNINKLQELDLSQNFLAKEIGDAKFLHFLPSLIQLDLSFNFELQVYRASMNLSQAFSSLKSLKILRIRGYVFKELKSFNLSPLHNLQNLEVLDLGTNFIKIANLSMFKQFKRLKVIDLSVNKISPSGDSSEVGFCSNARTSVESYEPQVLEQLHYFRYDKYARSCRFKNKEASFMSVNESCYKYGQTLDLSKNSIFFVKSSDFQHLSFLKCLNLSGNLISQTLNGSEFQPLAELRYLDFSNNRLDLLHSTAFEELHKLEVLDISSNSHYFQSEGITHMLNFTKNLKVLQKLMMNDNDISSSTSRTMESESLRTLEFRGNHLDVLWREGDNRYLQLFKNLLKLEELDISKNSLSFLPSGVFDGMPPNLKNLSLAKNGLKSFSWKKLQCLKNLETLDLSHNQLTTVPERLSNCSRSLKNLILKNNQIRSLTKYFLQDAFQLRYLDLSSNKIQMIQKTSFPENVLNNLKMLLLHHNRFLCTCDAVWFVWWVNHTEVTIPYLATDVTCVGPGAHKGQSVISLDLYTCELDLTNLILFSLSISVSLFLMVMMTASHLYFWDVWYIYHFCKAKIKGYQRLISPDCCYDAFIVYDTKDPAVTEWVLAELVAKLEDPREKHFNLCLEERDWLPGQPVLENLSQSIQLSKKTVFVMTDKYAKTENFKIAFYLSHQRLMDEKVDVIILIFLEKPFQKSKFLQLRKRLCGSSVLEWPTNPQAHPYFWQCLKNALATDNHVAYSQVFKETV
Method in brief: (§1)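 Screening used HEK-Blue cells overexpressing one human TLR (7, 8 or 9) and an IFN-β minimal promoter–NF-κB/AP-1 SEAP construct. Stimulation lasted 22 h at 37 °C with receptor-specific agonist: gardiquimod, R848 or ODN2006 at 7.5 μM, 15.9 μM and 5 nM.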

[2] = molecular target: T2, human TLR8 (Homo sapiens, UniProt Q9NR97); experiment: TLR8 inhibition reporter assay (HEK-Blue cells, SEAP reporter, R848 stimulation); conditions: HEK-Blue cells overexpressing human TLR8, SEAP reporter, R848 15.9 μM; read-out: TLR8 IC50
T2 construct: host or cells: HEK-Blue cells
T2 sequence (Q9NR97 27-1041): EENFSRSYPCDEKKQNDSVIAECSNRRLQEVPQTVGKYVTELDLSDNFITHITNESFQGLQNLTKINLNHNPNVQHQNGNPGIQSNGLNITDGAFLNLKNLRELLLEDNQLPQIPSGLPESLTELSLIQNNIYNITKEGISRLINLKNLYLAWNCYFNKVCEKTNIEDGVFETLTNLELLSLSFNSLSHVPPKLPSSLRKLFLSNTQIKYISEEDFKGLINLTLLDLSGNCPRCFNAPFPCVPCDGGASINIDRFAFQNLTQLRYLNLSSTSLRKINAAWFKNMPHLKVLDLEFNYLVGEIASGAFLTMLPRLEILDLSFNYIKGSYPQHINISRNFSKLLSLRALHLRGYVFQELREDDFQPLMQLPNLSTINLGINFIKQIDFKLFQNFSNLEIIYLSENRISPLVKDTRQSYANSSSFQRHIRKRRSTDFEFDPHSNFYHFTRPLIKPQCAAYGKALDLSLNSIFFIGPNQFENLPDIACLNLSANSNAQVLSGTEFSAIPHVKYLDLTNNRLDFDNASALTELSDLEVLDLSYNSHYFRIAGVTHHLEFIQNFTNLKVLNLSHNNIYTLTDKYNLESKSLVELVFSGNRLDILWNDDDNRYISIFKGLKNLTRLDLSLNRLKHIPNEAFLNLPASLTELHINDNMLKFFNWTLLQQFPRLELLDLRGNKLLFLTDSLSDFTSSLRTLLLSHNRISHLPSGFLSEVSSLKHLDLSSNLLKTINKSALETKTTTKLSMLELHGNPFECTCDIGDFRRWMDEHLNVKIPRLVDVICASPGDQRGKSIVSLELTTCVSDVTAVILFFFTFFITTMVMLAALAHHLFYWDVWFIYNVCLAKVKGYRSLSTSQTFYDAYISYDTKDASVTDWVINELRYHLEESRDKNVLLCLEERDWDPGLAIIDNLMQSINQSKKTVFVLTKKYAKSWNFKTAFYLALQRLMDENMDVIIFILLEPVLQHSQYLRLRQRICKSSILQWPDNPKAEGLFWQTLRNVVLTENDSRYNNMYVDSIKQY
Method in brief: as §1

[3] = molecular target: T3, human TLR9 (Homo sapiens, UniProt Q9NR96); experiment: TLR9 inhibition reporter assay (HEK-Blue cells, SEAP reporter, ODN2006 stimulation); conditions: HEK-Blue cells overexpressing human TLR9, SEAP reporter, ODN2006 5 nM
T3 construct: host or cells: HEK-Blue cells
T3 sequence (Q9NR96 26-1032): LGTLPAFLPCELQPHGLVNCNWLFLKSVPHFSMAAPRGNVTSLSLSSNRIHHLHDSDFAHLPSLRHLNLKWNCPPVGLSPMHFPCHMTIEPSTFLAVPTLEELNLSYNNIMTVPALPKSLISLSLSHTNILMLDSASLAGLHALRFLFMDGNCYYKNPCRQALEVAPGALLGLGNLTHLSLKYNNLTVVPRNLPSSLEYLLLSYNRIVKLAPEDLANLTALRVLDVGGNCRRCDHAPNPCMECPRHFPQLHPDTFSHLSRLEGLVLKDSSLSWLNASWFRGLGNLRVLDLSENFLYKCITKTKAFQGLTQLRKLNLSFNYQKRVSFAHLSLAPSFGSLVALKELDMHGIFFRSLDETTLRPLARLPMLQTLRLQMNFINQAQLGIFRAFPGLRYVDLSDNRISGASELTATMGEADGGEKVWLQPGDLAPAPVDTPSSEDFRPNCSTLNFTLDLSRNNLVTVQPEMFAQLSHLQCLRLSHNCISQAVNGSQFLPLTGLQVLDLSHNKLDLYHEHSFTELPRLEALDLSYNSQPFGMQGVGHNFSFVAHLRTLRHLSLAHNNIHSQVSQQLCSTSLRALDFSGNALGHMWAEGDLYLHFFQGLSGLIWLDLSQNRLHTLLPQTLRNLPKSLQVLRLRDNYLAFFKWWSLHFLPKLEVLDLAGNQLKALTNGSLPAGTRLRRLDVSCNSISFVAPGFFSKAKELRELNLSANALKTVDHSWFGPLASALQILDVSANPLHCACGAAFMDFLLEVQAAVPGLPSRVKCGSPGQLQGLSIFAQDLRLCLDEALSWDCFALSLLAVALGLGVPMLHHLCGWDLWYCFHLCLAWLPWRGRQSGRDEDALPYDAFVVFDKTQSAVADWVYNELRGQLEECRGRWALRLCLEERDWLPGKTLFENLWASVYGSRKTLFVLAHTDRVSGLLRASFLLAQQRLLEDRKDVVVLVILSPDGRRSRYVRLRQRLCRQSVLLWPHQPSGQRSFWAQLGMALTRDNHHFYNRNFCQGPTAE
Method in brief: as §1

IC50 [1] | IC50 [2] | IC50 [3] | Compound
4.29 nM | 0.49 nM | 6310 nM | CCN1C[C@H](C)N(c2nc3c(C(C)C)c(-c4cn5ncnc5c(C)c4C)[nH]c3s2)C[C@H]1C [Example 331, 5-(7,8-dimethyl-[1,2,4]triazolo[1,5-a]pyridin-6-yl)-2-((2S,5R)-4-ethyl-2,5-dimethylpiperazin-1-yl)-6-isopropyl-4H-pyrrolo[3,2-d]thiazole]
0.45 nM | 2.42 nM | 11500 nM | Cc1cc(-c2[nH]c3sc(C4CCC(NC5COC5)CC4)nc3c2C(C)C)cn2ncnc12 (single isomer, unassigned) [Example 130, N-(4-(6-isopropyl-5-(8-methyl-[1,2,4]triazolo[1,5-a]pyridin-6-yl)-4H-pyrrolo[3,2-d]thiazol-2-yl)cyclohexyl)oxetan-3-amine]
19.7 nM | 0.92 nM | 16300 nM | Cc1cc2ncnn2cc1-c1[nH]c2sc(C3CCC(N4CCCOCC4)CC3)nc2c1C(C)C (single isomer, unassigned) [Example 146, 4-(4-(6-isopropyl-5-(7-methyl-[1,2,4]triazolo[1,5-a]pyridin-6-yl)-4H-pyrrolo[3,2-d]thiazol-2-yl)cyclohexyl)-1,4-oxazepane]
1.45 nM | 0.43 nM | 19300 nM | Cc1c(-c2[nH]c3sc(N4CCNC[C@@H]4C)nc3c2C(C)C)cn2ncnc2c1C [Example 310, (S)-5-(7,8-dimethyl-[1,2,4]triazolo[1,5-a]pyridin-6-yl)-6-isopropyl-2-(2-methylpiperazin-1-yl)-4H-pyrrolo[3,2-d]thiazole]
11.1 nM | 9.06 nM | 5880 nM | Cc1c(-c2[nH]c3sc(C(=O)NCCC4CCN(C)CC4)nc3c2C(C)C)cn2ncnc2c1C [Example 381, 5-(7,8-dimethyl-[1,2,4]triazolo[1,5-a]pyridin-6-yl)-6-isopropyl-N-(2-(1-methylpiperidin-4-yl)ethyl)-4H-pyrrolo[3,2-d]thiazole-2-carboxamide]
3.68 nM | 23 nM | 4790 nM | COc1cc(-c2[nH]c3sc(C4CCC(N5CC[C@@H](NC(C)=O)C5)CC4)nc3c2C(C)C)cn2ncnc12 (single isomer, unassigned) [Example 101]
4.31 nM | 2.55 nM | 6280 nM | CCc1c(-c2cc(OC)c3ncnn3c2)[nH]c2sc(C3CCC(N4CC5(COC5)C4)CC3)nc12 (single isomer, unassigned) [Example 269, 6-(4-(6-ethyl-5-(8-methoxy-[1,2,4]triazolo[1,5-a]pyridin-6-yl)-4H-pyrrolo[3,2-d]thiazol-2-yl)cyclohexyl)-2-oxa-6-azaspiro[3.3]heptane]
0.59 nM | 0.89 nM | 10400 nM | Cc1cc(-c2[nH]c3sc(C4CCC(NCC(C)(C)O)CC4)nc3c2C(C)C)cn2ncnc12 (single isomer, unassigned) [Example 140, 1-((4-(6-isopropyl-5-(8-methyl-[1,2,4]triazolo[1,5-a]pyridin-6-yl)-4H-pyrrolo[3,2-d]thiazol-2-yl)cyclohexyl)amino)-2-methylpropan-2-ol]
0.31 nM | 2.34 nM | 4110 nM | COc1cc(-c2[nH]c3sc(C4CCC(N)CC4)nc3c2C(C)C)cn2ncnc12 (single isomer, unassigned) [Example 92, 4-(6-isopropyl-5-(8-methoxy-[1,2,4]triazolo[1,5-a]pyridin-6-yl)-4H-pyrrolo[3,2-d]thiazol-2-yl)cyclohexan-1-amine]
1.19 nM | 36.7 nM | 3610 nM | COc1cc(-c2[nH]c3sc(C4CCC(N5CCCC5)CC4)nc3c2C(C)C)cn2ncnc12 (single isomer, unassigned) [Example 99, 6-isopropyl-5-(8-methoxy-[1,2,4]triazolo[1,5-a]pyridin-6-yl)-2-(4-(pyrrolidin-1-yl)cyclohexyl)-4H-pyrrolo[3,2-d]thiazole]
8.56 nM | 7.58 nM | 7790 nM | CC(C)c1c(-c2cn(C)c3ncccc23)[nH]c2sc(C3CCC(NCC4(C)COC4)CC3)nc12 (single isomer, unassigned) [Example 173, 4-(6-isopropyl-5-(1-methyl-1H-pyrrolo[2,3-b]pyridin-3-yl)-4H-pyrrolo[3,2-d]thiazol-2-yl)-N-((3-methyloxetan-3-yl)methyl)cyclohexan-1-amine]
0.89 nM | 7.55 nM | 3390 nM | CNC1CCC(c2nc3c(C(C)C)c(-c4cc(OC)c5ncnn5c4)[nH]c3s2)CC1 (single isomer, unassigned) [Example 75, 4-(6-isopropyl-5-(8-methoxy-[1,2,4]triazolo[1,5-a]pyridin-6-yl)-4H-pyrrolo[3,2-d]thiazol-2-yl)-N-methylcyclohexan-1-amine]

Compound | IC50 [1] | IC50 [2] | IC50 [3]
COc1cc(-c2[nH]c3sc(C4CCC(N5[C@@H]6CC[C@H]5COC6)CC4)nc3c2C(C)C)cn2ncnc12 (single isomer, unassigned) [Example 104] | 1.98 nM | 2.81 nM | 5600 nM
